Data reported in ChEMBL document CHEMBL1123932, “Berbanes: a new class of selective alpha 2-adrenoceptor antagonists” (J Med Chem, 1987).

What was measured:
[1] = target: T1, Adrenergic receptor alpha-1 (Rattus norvegicus, UniProt P15823+P23944+P43140); assay: Antagonistic activity against postsynaptic Alpha-1 adrenergic receptor in isolated rat vas deferens using (-)-phenylephrine as agonist; format: functional, tissue-based
T1 sequence (P15823 whole entry): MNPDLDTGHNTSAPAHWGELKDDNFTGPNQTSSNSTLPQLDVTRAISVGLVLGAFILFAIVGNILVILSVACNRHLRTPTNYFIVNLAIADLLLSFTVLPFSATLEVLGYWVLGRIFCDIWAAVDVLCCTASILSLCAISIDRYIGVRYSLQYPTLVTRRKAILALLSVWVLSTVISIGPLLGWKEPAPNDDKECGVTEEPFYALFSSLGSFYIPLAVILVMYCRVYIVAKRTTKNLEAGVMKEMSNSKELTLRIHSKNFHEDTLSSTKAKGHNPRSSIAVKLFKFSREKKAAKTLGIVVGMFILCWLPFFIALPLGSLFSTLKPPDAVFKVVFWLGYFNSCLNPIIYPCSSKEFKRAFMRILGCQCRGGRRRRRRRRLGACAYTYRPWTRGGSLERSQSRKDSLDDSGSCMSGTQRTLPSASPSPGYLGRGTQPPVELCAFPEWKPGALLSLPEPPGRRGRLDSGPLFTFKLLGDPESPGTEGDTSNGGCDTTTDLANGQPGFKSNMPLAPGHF
T1 sequence (P23944 whole entry): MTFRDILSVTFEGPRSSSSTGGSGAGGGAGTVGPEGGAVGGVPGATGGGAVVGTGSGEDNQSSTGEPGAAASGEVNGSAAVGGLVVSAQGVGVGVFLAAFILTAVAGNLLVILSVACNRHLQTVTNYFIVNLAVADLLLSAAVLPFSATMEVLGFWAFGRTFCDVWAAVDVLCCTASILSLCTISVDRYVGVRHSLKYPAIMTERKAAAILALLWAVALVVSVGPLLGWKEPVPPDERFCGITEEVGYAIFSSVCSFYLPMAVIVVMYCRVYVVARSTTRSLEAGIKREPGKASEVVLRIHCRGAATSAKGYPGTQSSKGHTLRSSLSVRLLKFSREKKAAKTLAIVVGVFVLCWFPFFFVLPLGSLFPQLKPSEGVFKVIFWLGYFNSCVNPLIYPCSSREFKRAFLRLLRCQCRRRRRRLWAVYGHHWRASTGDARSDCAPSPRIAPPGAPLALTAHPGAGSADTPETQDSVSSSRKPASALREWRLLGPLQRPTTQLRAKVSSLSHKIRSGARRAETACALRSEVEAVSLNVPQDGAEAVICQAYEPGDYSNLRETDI
T1 sequence (P43140 whole entry): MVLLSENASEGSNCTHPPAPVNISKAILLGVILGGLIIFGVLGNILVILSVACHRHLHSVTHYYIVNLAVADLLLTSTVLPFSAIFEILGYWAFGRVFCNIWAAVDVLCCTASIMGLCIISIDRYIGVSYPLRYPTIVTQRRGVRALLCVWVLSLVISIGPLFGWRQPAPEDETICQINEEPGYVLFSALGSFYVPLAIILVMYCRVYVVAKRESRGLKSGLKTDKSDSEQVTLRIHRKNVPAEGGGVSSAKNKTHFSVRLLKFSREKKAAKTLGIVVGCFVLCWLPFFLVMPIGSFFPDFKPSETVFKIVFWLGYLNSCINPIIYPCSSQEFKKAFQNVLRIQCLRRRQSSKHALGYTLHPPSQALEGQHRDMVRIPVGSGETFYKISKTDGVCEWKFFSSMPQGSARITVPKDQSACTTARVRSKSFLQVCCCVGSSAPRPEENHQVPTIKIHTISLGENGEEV

[2] = target: Adrenergic receptor alpha-2 (Cavia porcellus); assay: Antagonistic activity against adrenergic alpha-2 receptor in longitudinal muscle strip of the guinea pig ileum using l-norepinephrine as agonist
[3] = target: T2, Adrenergic receptor alpha-2 (Rattus norvegicus, UniProt P22086+P19328+P22909); assay: Antagonistic activity against presynaptic alpha-2 adrenergic receptor in isolated rat vas deferens using xylazine as agonist; format: functional, tissue-based
T2 sequence (P22086 whole entry): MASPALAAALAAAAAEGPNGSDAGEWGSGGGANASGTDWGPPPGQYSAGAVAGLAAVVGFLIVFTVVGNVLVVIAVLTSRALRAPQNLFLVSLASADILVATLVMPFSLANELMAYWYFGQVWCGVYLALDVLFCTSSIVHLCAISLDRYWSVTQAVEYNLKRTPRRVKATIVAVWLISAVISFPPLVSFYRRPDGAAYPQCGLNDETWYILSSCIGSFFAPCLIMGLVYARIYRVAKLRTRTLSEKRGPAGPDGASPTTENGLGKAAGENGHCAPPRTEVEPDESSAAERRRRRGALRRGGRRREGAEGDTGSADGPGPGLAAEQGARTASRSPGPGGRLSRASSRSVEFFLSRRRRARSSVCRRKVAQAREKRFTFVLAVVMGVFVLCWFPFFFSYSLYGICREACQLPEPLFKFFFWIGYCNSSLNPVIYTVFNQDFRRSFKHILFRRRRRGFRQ
T2 sequence (P19328 whole entry): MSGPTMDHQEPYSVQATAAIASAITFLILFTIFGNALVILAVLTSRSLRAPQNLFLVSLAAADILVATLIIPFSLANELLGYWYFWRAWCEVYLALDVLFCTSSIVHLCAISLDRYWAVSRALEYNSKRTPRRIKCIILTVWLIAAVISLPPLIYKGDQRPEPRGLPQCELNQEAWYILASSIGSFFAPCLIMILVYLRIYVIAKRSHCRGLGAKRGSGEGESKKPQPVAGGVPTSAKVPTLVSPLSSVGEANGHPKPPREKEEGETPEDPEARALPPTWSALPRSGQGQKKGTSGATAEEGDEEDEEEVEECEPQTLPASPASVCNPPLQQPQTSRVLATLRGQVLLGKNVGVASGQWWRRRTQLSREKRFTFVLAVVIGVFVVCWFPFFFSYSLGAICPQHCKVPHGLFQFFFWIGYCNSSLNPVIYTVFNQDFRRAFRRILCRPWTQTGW
T2 sequence (P22909 whole entry): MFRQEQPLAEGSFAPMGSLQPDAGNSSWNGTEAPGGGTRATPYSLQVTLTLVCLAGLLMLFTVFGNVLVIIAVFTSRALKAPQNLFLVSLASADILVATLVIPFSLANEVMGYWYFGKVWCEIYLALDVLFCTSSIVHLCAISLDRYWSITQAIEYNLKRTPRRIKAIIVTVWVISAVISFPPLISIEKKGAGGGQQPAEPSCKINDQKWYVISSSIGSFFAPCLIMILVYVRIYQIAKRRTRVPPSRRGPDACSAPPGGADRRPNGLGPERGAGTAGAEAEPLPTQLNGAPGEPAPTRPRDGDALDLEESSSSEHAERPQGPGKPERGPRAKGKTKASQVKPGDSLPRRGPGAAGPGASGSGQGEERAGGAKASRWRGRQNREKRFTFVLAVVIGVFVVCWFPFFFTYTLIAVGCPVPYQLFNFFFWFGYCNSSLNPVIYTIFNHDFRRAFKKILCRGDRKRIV

SMILES	pA2 [1]	pA2 [2]	pA2 [3]
CCOC(=O)[C@H]1[C@H]2C[C@H]3c4cc5c(cc4CCN3C[C@H]2CC[C@H]1O)OCO5	5.51	–	–
COc1cc2c(cc1OC)[C@@H]1C[C@@H]3C[C@H](OC(C)=O)CC[C@@H]3CN1CC2	4.54	6.19	6.61
CCOc1cc2c(cc1OCC)[C@@H]1C[C@@H]3C[C@H](O)CCC3CN1CC2 (stereo partly specified)	< 4	–	6.41
OC[C@@H]1[C@H]2C[C@H]3c4cc5c(cc4CCN3C[C@@H]2CC[C@H]1O)OCO5	5.25	–	–
COc1cc2c(cc1OC)[C@@H]1C[C@@H]3C[C@H](O)CC[C@@H]3CN1CC2	< 4	< 4	6.31

Second part, the compound after the results:

pA2 [1]	pA2 [2]	pA2 [3]	SMILES
< 4	6.67	6.1	N#C[C@@H]1C[C@@H]2CN3CCc4cc5c(cc4[C@@H]3C[C@@H]2C[C@@H]1O)OCO5
< 4	–	–	OC[C@@H]1C[C@@H]2CN3CCc4cc5c(cc4[C@@H]3C[C@@H]2C[C@@H]1O)OCO5
< 4	–	5.74	Oc1cc2c(cc1O)[C@@H]1C[C@@H]3C[C@H](O)CC[C@@H]3CN1CC2
5.98	–	–	COC(=O)[C@H]1C[C@H]2CN3CCc4cc5c(cc4[C@@H]3C[C@@H]2C[C@@H]1O)OCO5
4.8	–	–	COC(=O)[C@@H]1C[C@@H]2CN3CCc4cc5c(cc4[C@@H]3C[C@@H]2C[C@@H]1O)OCO5
4.55	8.21	7.3	CC(=O)O[C@@H]1CC[C@@H]2CN3CCc4cc5c(cc4[C@@H]3C[C@@H]2C1)OCO5
